Literature values, collected in patent publication US6812249B2, “Process for preparing a 3-hydroxy-3-methylbutyrate amino acid salt and method of use” (priority 2003, dated 2004).

Details: experienced weight trained athletes; oral supplementation for 6 weeks or 28 days

CC(C)(O)CC(=O)[O-].CC(C)(O)CC(=O)[O-].[Ca+2] [HMB calcium salt]
alteration in muscle size, fat mass, or strength variables: no alteration in muscle size, fat mass, or strength variables
